Test: Plasma PK of Compound A after a single 9-hour IV infusion in sleep-deprived healthy male subjects
Assay type: in vivo, human
Procedure: This was a phase 1b, single-center, randomized, double-blind, double-dummy, placebo- and active-controlled, 4-period Williams design crossover study to evaluate the PK, PD, and safety of Compound A in sleep-deprived healthy volunteers. Compound A was administered as a 9-hour IV infusion.
Healthy adult male subjects aged 18 to 40 years, inclusive, who satisfied the inclusion and exclusion criteria were enrolled in the trial. On Day 1 of treatment period 1, eligible subjects were equally randomized to 4 treatment sequence groups (sequence 1 to 4) which defined the order of administration for Compound A LD, Compound A HD (both delivered as a 9-hour IV infusion), modafinil 300 mg, and placebo.
During the day before dosing on Day 1, participants were administered the KSS at scheduled timepoints. A practice MWT session was performed on Day 1 treatment period 1 (only once during the entire study) to familiarize subjects with the procedures. Study drug was administered in the clinic in the evening on Day 1 of each treatment period. Subjects underwent the MWT and KSS at specified timepoints after the start of the infusion. Subjects were required to stay awake between the MWT tests. Following completion of the IV infusion on Day 2, subjects underwent an additional MWT test. When the final MWT test and cognitive testing were completed, subjects were allowed to sleep (recovery sleep) for approximately 6 hours. PSG recording was collected during this time. Subjects were discharged from the unit after completion on Day 2 with continuing actigraphy upon discharge (to begin on Day −6 before the next treatment period). The interval between each subsequent treatment period was at least 7 days to ensure that the subject's circadian rhythm had returned to a normal cycle. Subject's vital signs, including BP, were monitored during the dosing and testing period. Blood samples for determination of Compound A plasma concentrations were collected at specified timepoints on Days 1 and 2 of each treatment period. Subjects completed the Columbia-Suicide Severity Rating Scale (C-SSRS) during screening, before study drug administration, and before discharge on Day 2 of each treatment period.
Plasma concentrations were tabulated, and descriptive statistics were calculated for each Compound A dose level and are listed in Tables 3-6 for Compound A. The mean plasma concentration versus time plots for Compound A are shown in FIG. 1.

[1] = 44 mg 9-h IV infusion, 0.17 h post infusion end
[2] = 44 mg 9-h IV infusion, 0.5 h post infusion end
[3] = 44 mg 9-h IV infusion, 1 h post infusion end
[4] = 44 mg 9-h IV infusion, 2 h post infusion end
[5] = 44 mg 9-h IV infusion, 3 h post infusion end
[6] = 44 mg 9-h IV infusion, 4 h post infusion end
[7] = 44 mg 9-h IV infusion, 6 h post infusion end
[8] = 44 mg 9-h IV infusion, 9 h post infusion end
[9] = 44 mg 9-h IV infusion, Discharge (post infusion end)
[10] = 44 mg [LD] single 9-hour IV infusion
[11] = 112 mg 9-h IV infusion, 0.17 h post infusion end
[12] = 112 mg 9-h IV infusion, 0.5 h post infusion end
[13] = 112 mg 9-h IV infusion, 1 h post infusion end
[14] = 112 mg 9-h IV infusion, 1 h post infusion start
[15] = 112 mg 9-h IV infusion, 2 h post infusion end
[16] = 112 mg 9-h IV infusion, 2 h post infusion start
[17] = 112 mg 9-h IV infusion, 4 h post infusion start
[18] = 112 mg 9-h IV infusion, 6 h post infusion start
[19] = 112 mg 9-h IV infusion, 9 h post infusion start
[20] = 112 mg 9-h IV infusion, Discharge (post infusion end)
[21] = 112 mg [HD] single 9-hour IV infusion

Plasma Concentration Mean [1]: 76.86 ng/mL | Plasma concentration (GM) [1]: 76.07 ng/mL | Plasma concentration (Median) [1]: 74.80 ng/mL | Plasma Concentration Mean [2]: 50.78 ng/mL | Plasma concentration (GM) [2]: 49.49 ng/mL | Plasma concentration (Median) [2]: 49.10 ng/mL | Plasma Concentration Mean [3]: 40.73 ng/mL | Plasma concentration (GM) [3]: 39.05 ng/mL | Plasma concentration (Median) [3]: 38.15 ng/mL | Plasma Concentration Mean [4]: 22.23 ng/mL | Plasma concentration (GM) [4]: 21.44 ng/mL | Plasma concentration (Median) [4]: 21.00 ng/mL | Plasma Concentration Mean [5]: 20.67 ng/mL | Plasma concentration (GM) [5]: 19.74 ng/mL | Plasma concentration (Median) [5]: 20.35 ng/mL | Plasma Concentration Mean [6]: 16.28 ng/mL | Plasma concentration (GM) [6]: 15.56 ng/mL | Plasma concentration (Median) [6]: 17.25 ng/mL | Plasma Concentration Mean [7]: 10.32 ng/mL | Plasma concentration (GM) [7]: 9.85 ng/mL | Plasma concentration (Median) [7]: 10.75 ng/mL | Plasma Concentration Mean [8]: 5.56 ng/mL | Plasma concentration (GM) [8]: 5.06 ng/mL | Plasma concentration (Median) [8]: 5.06 ng/mL | Plasma Concentration Mean [9]: 4.95 ng/mL | Plasma concentration (GM) [9]: 4.60 ng/mL | Plasma concentration (Median) [9]: 4.78 ng/mL | Ceoi (GM) [10]: 102.5 ng/mL | Ceoi (Mean) [10]: 103.4 ng/mL | Ceoi (Median) [10]: 101.0 ng/mL | t1/2z (Mean) [10]: 3.134 h | t1/2z (Median) [10]: 3.020 h | Plasma Concentration Mean [11]: 196.83 ng/mL | Plasma concentration (Median) [11]: 197.50 ng/mL | Plasma Concentration Mean [12]: 124.21 ng/mL | Plasma concentration (Median) [12]: 121.50 ng/mL | Plasma Concentration Mean [13]: 100.48 ng/mL | Plasma concentration (Median) [13]: 96.90 ng/mL | Plasma Concentration Mean [14]: 162.56 ng/mL | Plasma concentration (GM) [14]: 155.56 ng/mL | Plasma concentration (Median) [14]: 151.00 ng/mL | Plasma Concentration Mean [15]: 58.92 ng/mL | Plasma concentration (Median) [15]: 61.40 ng/mL | Plasma Concentration Mean [16]: 187.06 ng/mL | Plasma concentration (GM) [16]: 185.71 ng/mL | Plasma concentration (Median) [16]: 179.50 ng/mL | Plasma Concentration Mean (112 mg 9-h IV infusion, 3 h post infusion end): 53.01 ng/mL | Plasma Concentration Mean (112 mg 9-h IV infusion, 4 h post infusion end): 41.98 ng/mL | Plasma Concentration Mean [17]: 217.61 ng/mL | Plasma concentration (GM) [17]: 216.56 ng/mL | Plasma concentration (Median) [17]: 210.00 ng/mL | Plasma Concentration Mean (112 mg 9-h IV infusion, 6 h post infusion end): 24.24 ng/mL | Plasma Concentration Mean [18]: 234.06 ng/mL | Plasma concentration (GM) [18]: 232.92 ng/mL | Plasma concentration (Median) [18]: 229.50 ng/mL | Plasma Concentration Mean (112 mg 9-h IV infusion, 9 h post infusion end): 13.78 ng/mL | Plasma Concentration Mean [19]: 253.39 ng/mL | Plasma concentration (GM) [19]: 250.96 ng/mL | Plasma concentration (Median) [19]: 252.50 ng/mL | Plasma Concentration Mean [20]: 13.01 ng/mL | Plasma concentration (GM) [20]: 12.09 ng/mL | Plasma concentration (Median) [20]: 11.50 ng/mL | Ceoi (GM) [21]: 251.0 ng/mL | Ceoi (Mean) [21]: 253.4 ng/mL | Ceoi (Median) [21]: 252.5 ng/mL | t1/2z (Mean) [21]: 3.252 h | t1/2z (Median) [21]: 3.165 h
SMILES: COC(=O)N1CCC[C@H](NS(C)(=O)=O)[C@@H]1CO[C@H]1CC[C@@H](c2ccccc2)CC1 [Compound A, methyl (2R,3S)-3-((methylsulfonyl)amino)-2-(((cis-4-phenylcyclohexyl)oxy)methyl)piperidine-1-carboxylate]

Reference: patent US20220331303A1, “USE OF AN OREXIN 2 RECEPTOR AGONIST FOR THE TREATMENT OF EXCESSIVE SLEEPINESS” (Takeda Pharmaceutical Company Limited, priority 2019, published 2022)
